The source of these data is PubChem BioAssay (NCI).

Among the test systems are OVCAR-4 ovarian; M19-MEL melanoma; DMS 114 small cell lung; HOP-18 NSCLC; DMS 273 small cell lung; HS 578T breast; MDA-MB-435; RXF-631 renal; SNB-78 CNS; T-47D breast; NCI/ADR-RES ovarian; MDA-MB-231 breast; 786-0 renal; PC-3 prostate; SN12K1 renal.
Common to all, as to test: NCI-60 cell line screen, 48 h

Molecules are shown by their SMILES.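 Interpolation was linear, between the two tested concentrations surrounding the appropriate level; five concentrations were tested over 48 hours in 96-well plates. Abbreviation: GI50, concentration required for 50% inhibition of growth. TGI is the concentration that stops growth completely.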

For the compound `O=C(N/N=C/c1cc(Br)cc(Br)c1[O-])c1ccccc1O.O=C(N/N=C/c1cc(Br)cc(Br)c1[O-])c1ccccc1O.[Cl-].[Fe+3]`, the TGI in the test with OVCAR-4 ovarian was 8.24 µM.
Regarding `CCOC(=O)C1=C(C)N2CCCOC2(C)C(C(=O)OC)C1c1cccc([N+](=O)[O-])c1` (configuration not stated), the TGI in the test on M19-MEL melanoma and with DMS 114 small cell lung was greater than 100 µM in each case.
For `C#CCCCCC#CC1CCCC1C1=CC(=O)c2ccccc21` (configuration not stated), the TGI worked out at 25 µM in the test with HOP-18 NSCLC, 11.9 µM in the test on DMS 273 small cell lung, 23.9 µM with OVCAR-4 ovarian and 6.97 µM in the test with DMS 114 small cell lung.
`CC(=O)O[C@H]1CC[C@]2(C)[C@H]3C(=O)C=C4[C@@H]5C[C@](C)(C(=O)N6CCCNCC6)CC[C@]5(C)CC[C@@]4(C)[C@]3(C)CC[C@H]2C1(C)C`: the GI50 with HS 578T breast is 2.13 µM; in the test with MDA-MB-435 it was 1.59 µM. For the same compound, the TGI stood at 4.69 µM in the test with HS 578T breast and 2.97 µM in the test on MDA-MB-435.
On to `CCCNCC(O)/C=C/[Si](C)(C)C` (configuration not stated) (tested in a mixture with another compound), for which the TGI in the test with M19-MEL melanoma, in the test on RXF-631 renal, in the test on HOP-18 NSCLC, in the test on DMS 114 small cell lung and with SNB-78 CNS was greater than 100 µM each time.
With `CC1(C)[C@@H]2C[C@H]1C(Cc1ccccc1C[C@H]1c3cc(-c4ccccn4)ncc3[C@H]3C[C@@H]1C3(C)C)c1cc(-c3ccccn3)ncc12` (some centres not stated), the TGI with T-47D breast was 3.6 µM; with NCI/ADR-RES ovarian it was greater than 36.7 µM; with MDA-MB-231 breast, greater than 68 µM; in the test with HS 578T breast, greater than 100 µM; in the test with OVCAR-4 ovarian, greater than 100 µM; in the test on MDA-MB-435 it was greater than 42.2 µM.
For the compound `N=C(N)SC1c2ccccc2-c2cc([N+](=O)[O-])ccc21` (configuration not stated), the TGI with T-47D breast was 16.2 µM; with NCI/ADR-RES ovarian, 16 µM; with MDA-MB-231 breast, 23.6 µM; with HS 578T breast, 12.2 µM; in the test on OVCAR-4 ovarian, 17.3 µM; in the test with 786-0 renal it was 14.9 µM. The values for the TGI with MDA-MB-435 and in the test on PC-3 prostate were 4.26 µM and 13.8 µM, respectively.
`CN(C)CCNc1ccc2nnn3c4ccc(Cl)cc4c(=O)c1c23`: the TGI with T-47D breast was found to be 49.2 µM; in the test on NCI/ADR-RES ovarian, 15.9 µM; with M19-MEL melanoma, 15.1 µM; in the test with RXF-631 renal it was 16.4 µM; in the test on MDA-MB-231 breast it was 25.7 µM; in the test with HS 578T breast it was 13.5 µM. The TGI was found to be 15.9 µM in the test with OVCAR-4 ovarian; 15.6 µM in the test with 786-0 renal; 18.8 µM in the test with MDA-MB-435; 34.9 µM with SNB-78 CNS; 13.6 µM in the test with PC-3 prostate.
On to `CN[C@@H]1[C@H](O)[C@H](NC)[C@H]2O[C@@]3(O)C(=O)C[C@@H](C)O[C@H]3O[C@@H]2[C@H]1O`, for which the TGI with T-47D breast, in the test with NCI/ADR-RES ovarian, in the test on MDA-MB-231 breast, with HS 578T breast, in the test with OVCAR-4 ovarian and in the test with MDA-MB-435 was greater than 100 µM in each case. The compound also showed a TGI with PC-3 prostate greater than 100 µM.
Take `C[n+]1ccccc1/C=C/c1ccc2c(c1)OCO2`: the TGI in the test with T-47D breast, in the test with NCI/ADR-RES ovarian, with MDA-MB-231 breast, with HS 578T breast, with OVCAR-4 ovarian and in the test with 786-0 renal was greater than 10 µM each time. Further, the TGI in the test on MDA-MB-435 and in the test on PC-3 prostate was greater than 10 µM throughout.
On to `O=[N+]([O-])/C=C/c1cccc(F)c1`, for which the TGI in the test with T-47D breast stood at 72.5 µM; with NCI/ADR-RES ovarian, 35.2 µM; with MDA-MB-231 breast it was 38.2 µM; in the test on HS 578T breast, 9.18 µM; in the test on OVCAR-4 ovarian, 16.8 µM; in the test on MDA-MB-435 it was 13.2 µM. In addition, the TGI in the test on PC-3 prostate was found to be 11.9 µM.
For the compound `CCCCCCc1ccc(O)cc1O`, the TGI with NCI/ADR-RES ovarian was greater than 100 µM; with M19-MEL melanoma, 98 µM; with SN12K1 renal, greater than 100 µM; in the test with HOP-18 NSCLC, greater than 92.5 µM; in the test with DMS 273 small cell lung, greater than 100 µM; in the test with OVCAR-4 ovarian it was greater than 100 µM. In the test with SNB-78 CNS, this compound displayed a TGI greater than 100 µM.
`COc1cc2c(cc1OC)C(C1(O)CCCCC1)NCC2` (configuration not stated): the TGI with M19-MEL melanoma and in the test with DMS 273 small cell lung was greater than 100 µM each time.
As to `COc1cc2c(cc1O)CCN[C@@]21CS[C@H]2c3c(OC(C)=O)c(C)c4c(c3C(COC1=O)N1C2C2c3c(cc(C)c(OC)c3O)CC([C@@H]1O)N2C)OCO4` (some centres not stated), the TGI was greater than 1 µM with T-47D breast; less than 1e-06 µM with M19-MEL melanoma; 0.0357 µM in the test on MDA-MB-231 breast; 0.0137 µM in the test on HS 578T breast; less than 1e-06 µM with DMS 273 small cell lung; 0.00604 µM in the test with MDA-MB-435. For the same compound, the GI50 with NCI/ADR-RES ovarian was 0.0112 µM; in the test with MDA-MB-231 breast, 0.00325 µM; in the test on HS 578T breast, 0.00279 µM; in the test on MDA-MB-435, 0.00219 µM; in the test on PC-3 prostate, 0.00429 µM.
As to `NC(Cc1ccc2oc3cc(=O)c4ccccc4c-3nc2c1)C(=O)O` (configuration not stated), the TGI is greater than 84.7 µM in the test on T-47D breast; greater than 100 µM with NCI/ADR-RES ovarian; greater than 100 µM in the test with MDA-MB-231 breast; 59.6 µM with HS 578T breast; 77.7 µM in the test on HOP-18 NSCLC; greater than 60.1 µM in the test with DMS 273 small cell lung. Besides, the TGI was greater than 88.9 µM in the test with OVCAR-4 ovarian; greater than 100 µM in the test with 786-0 renal; 41.1 µM in the test on DMS 114 small cell lung; 12.2 µM in the test with MDA-MB-435; greater than 100 µM with SNB-78 CNS; greater than 100 µM in the test with PC-3 prostate.
In the case of `Cc1c(Cl)c(S(N)(=O)=O)cc(S(N)(=O)=O)c1NC(=O)c1ccc(Cl)cc1`, the TGI with T-47D breast, in the test on NCI/ADR-RES ovarian, with HS 578T breast, in the test with OVCAR-4 ovarian, in the test with 786-0 renal and in the test with MDA-MB-435 was greater than 100 µM throughout. The TGI in the test on PC-3 prostate is greater than 100 µM.
